Reference: patent publication US20240124465A1, “MOLECULES AND METHODS RELATED TO TREATMENT OF DISORDERS ASSOCIATED WITH JAK-2 SIGNALING DYSFUNCTION” (ST. JUDE CHILDREN'S RESEARCH HOSPITAL, priority 2020, published 2024)

Legend:
Type in all cases: cell-based
JAK3 = molecular target: T1, JAK3 (Homo sapiens, UniProt P52333); assay: Western blot assay, JAK3 protein degradation; settings: MHHCALL4; 100 nM, 24 h; MHH-CALL-4 cells; vehicle control = 100%; read-out: Target Protein Degradation (% remaining at 100 nM, 24 h) JAK3
T1 construct: endogenous in cells; host or cells: MHH-CALL-4
T1 sequence (P52333 1-1124): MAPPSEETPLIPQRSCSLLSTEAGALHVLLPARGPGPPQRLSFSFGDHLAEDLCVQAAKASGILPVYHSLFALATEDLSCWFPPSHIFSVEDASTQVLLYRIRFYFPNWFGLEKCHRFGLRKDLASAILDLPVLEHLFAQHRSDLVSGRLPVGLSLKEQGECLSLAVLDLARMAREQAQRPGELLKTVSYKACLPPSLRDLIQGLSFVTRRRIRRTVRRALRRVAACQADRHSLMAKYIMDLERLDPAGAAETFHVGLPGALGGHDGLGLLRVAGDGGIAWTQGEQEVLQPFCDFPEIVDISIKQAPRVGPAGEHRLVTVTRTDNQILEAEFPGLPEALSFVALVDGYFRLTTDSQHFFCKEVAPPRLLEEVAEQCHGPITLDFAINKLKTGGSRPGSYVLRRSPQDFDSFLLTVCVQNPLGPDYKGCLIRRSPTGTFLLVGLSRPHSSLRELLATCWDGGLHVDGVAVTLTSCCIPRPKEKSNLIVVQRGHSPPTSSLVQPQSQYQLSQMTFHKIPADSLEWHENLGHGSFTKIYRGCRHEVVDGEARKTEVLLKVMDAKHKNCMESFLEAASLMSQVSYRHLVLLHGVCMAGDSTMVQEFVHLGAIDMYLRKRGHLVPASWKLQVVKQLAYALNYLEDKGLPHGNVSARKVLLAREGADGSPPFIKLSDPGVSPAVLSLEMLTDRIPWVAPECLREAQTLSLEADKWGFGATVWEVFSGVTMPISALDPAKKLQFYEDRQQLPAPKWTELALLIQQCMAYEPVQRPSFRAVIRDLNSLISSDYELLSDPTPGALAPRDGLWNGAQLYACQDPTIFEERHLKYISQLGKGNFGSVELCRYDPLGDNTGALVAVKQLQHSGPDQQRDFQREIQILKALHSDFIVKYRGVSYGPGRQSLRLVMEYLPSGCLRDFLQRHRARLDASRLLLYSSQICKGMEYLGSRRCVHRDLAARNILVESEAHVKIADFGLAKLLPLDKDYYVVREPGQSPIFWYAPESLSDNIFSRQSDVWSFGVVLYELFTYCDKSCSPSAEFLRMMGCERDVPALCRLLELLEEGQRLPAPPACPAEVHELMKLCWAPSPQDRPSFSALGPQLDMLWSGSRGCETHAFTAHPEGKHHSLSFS
How it was run: (§1)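 MHH-CALL-4 cells were lysed in RIPA buffer with protease inhibitors, and 10-20 μg total protein per lane was resolved on 4%-12% Bis-Tris gels and immunoblotted. Target band signal was normalized to ACBT and expressed relative to vehicle control set at 100%.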

GSPT1 = molecular target: T2, GSPT1 (Homo sapiens, UniProt P15170); assay: Western blot assay, GSPT1 neosubstrate degradation; settings: MHHCALL4; 100 nM, 24 h; MHH-CALL-4 cells; vehicle control = 100%
T2 construct: endogenous in cells; host or cells: MHH-CALL-4
T2 sequence (P15170 whole entry): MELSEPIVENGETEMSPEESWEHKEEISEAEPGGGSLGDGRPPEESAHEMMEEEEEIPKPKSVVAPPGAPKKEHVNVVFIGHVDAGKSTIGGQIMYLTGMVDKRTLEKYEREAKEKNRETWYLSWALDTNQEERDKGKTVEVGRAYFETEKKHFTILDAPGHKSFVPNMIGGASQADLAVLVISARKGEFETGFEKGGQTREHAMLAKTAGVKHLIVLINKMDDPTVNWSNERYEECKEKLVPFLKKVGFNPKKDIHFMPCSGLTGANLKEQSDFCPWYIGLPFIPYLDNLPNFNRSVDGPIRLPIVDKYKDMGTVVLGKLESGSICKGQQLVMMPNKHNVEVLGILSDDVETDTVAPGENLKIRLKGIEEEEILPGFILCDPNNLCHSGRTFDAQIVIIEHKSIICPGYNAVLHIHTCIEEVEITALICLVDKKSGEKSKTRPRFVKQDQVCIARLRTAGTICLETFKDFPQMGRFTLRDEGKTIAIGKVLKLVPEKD
How it was run: as §1

JAK1 = molecular target: T3, JAK1 (Homo sapiens, UniProt P23458); assay: Western blot assay, JAK1 protein degradation; settings: MHH-CALL-4 cells, vehicle control = 100%
T3 construct: endogenous in cells; host or cells: MHH-CALL-4
T3 sequence (P23458 whole entry): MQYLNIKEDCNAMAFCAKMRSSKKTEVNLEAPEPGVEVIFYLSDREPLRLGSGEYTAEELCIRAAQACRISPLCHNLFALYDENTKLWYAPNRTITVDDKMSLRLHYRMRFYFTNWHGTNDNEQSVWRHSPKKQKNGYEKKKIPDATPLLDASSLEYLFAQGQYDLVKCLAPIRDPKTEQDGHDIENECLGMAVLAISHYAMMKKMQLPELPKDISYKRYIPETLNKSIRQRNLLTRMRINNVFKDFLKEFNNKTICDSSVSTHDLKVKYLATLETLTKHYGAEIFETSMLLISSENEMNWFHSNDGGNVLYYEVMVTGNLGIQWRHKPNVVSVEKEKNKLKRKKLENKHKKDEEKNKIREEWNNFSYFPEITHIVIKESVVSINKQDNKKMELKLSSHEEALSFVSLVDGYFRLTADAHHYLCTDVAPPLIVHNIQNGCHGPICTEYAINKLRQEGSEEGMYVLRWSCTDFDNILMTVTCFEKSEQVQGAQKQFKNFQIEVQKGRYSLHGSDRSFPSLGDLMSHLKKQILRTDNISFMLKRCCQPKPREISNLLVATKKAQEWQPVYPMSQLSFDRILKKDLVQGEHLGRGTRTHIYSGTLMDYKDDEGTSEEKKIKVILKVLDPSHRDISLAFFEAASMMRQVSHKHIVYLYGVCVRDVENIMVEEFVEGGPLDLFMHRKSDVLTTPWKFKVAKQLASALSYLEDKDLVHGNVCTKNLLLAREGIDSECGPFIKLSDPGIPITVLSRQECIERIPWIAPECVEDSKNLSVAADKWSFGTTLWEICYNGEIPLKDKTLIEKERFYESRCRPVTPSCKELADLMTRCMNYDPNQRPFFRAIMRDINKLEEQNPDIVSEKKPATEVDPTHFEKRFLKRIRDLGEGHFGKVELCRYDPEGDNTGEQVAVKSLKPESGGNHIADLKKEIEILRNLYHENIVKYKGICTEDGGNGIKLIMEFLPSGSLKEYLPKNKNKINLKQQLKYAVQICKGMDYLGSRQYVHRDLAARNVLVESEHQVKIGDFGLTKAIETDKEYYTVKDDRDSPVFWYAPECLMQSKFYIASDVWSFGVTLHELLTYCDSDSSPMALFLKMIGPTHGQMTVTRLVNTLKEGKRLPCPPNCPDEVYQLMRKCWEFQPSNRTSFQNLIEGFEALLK
Method: (§2) Western blot assay: MHH-CALL-4 Cells were washed twice with ice-cold PBS and lysed in RIPA lysis buffer (Sigma) freshly supplemented with Halt™ Protease Inhibitor Cocktail (ThermoFisher) for 15 minutes on ice. The cell pellet was removed by centrifugation at 13,000 g at 4° C. for 15 minutes. Protein concentration was measured by BCA assay (Thermo Fisher Scientific). Proteins were denatured in NuPAGE LDS 4× sample buffer supplemented with reducing agents (Invitrogen). Typically, 10-20 μg of total protein was loaded per lane on a 4%-12% NUPAGE Bis-Tris gradient gel (Invitrogen) and analyzed by standard immunoblotting and imaged using Li—COR Odyssey CLx (LI-COR Biotechnology, Lincoln, NE). To access the protein degradation, the signal of target protein was normalized by the signal of ACBT and the signal of vehicle control was set as 100%. Primary antibodies used were: JAK1 (Cell Signaling #3332S), JAK2 (#3230S), JAK3 (#8827S), TYK2 (#9312S), GSPT1 (#14980S), CRBN (#71810S), IKZF1 (Santa Cruz Biotechnology, SC-398265) and ACBT (Santa Cruz Biotechnology, SC-47778).

JAK2 = assay: Western blot assay, JAK2 protein degradation; settings: MHH-CALL-4 cells, vehicle control = 100%
How it was run: as §1

IKZF1 = molecular target: T4, IKZF1 (Homo sapiens, UniProt Q13422); assay: Western blot assay, IKZF1 neosubstrate degradation; settings: MHH-CALL-4 cells, vehicle control = 100%
T4 construct: endogenous in cells; host or cells: MHH-CALL-4
T4 sequence (Q13422 whole entry): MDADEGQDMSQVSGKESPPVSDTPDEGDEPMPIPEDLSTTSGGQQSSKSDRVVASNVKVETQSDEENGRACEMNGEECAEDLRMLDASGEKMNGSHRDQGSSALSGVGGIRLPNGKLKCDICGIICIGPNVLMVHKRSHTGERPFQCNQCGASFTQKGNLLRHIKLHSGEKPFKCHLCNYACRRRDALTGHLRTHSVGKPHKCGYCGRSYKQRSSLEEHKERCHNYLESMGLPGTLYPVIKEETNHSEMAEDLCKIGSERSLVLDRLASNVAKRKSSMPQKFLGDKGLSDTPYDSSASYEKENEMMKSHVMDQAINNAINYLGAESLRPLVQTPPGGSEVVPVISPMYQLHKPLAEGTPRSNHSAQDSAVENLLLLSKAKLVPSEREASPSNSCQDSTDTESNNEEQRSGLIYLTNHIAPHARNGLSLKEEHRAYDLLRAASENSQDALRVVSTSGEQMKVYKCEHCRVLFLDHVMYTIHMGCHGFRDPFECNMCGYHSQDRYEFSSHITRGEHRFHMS
Method: as §2

MHH-CALL-4 cells = assay: Cytotoxicity assay (resazurin, 72 hours); set-up: AUC: unit not given beside the values; settings: for EC50: MHHCALL4, resazurin; for AUC: area under the dose-response curve
How it was run: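 Cells grown in RPMI1640 with 10% FBS, 2×10⁵ per well, were exposed to pin-transferred compounds in triplicate for 72 h at 37 °C, 5% CO2. Viability was read after 4 h resazurin incubation. Dose-response AUC was calculated per compound; selected data were fitted by non-linear regression.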

TYK2 = molecular target: T5, TYK2 (Homo sapiens, UniProt P29597); assay: Western blot assay, TYK2 protein degradation; settings: MHH-CALL-4 cells, vehicle control = 100%
T5 construct: endogenous in cells; host or cells: MHH-CALL-4
T5 sequence (P29597 whole entry): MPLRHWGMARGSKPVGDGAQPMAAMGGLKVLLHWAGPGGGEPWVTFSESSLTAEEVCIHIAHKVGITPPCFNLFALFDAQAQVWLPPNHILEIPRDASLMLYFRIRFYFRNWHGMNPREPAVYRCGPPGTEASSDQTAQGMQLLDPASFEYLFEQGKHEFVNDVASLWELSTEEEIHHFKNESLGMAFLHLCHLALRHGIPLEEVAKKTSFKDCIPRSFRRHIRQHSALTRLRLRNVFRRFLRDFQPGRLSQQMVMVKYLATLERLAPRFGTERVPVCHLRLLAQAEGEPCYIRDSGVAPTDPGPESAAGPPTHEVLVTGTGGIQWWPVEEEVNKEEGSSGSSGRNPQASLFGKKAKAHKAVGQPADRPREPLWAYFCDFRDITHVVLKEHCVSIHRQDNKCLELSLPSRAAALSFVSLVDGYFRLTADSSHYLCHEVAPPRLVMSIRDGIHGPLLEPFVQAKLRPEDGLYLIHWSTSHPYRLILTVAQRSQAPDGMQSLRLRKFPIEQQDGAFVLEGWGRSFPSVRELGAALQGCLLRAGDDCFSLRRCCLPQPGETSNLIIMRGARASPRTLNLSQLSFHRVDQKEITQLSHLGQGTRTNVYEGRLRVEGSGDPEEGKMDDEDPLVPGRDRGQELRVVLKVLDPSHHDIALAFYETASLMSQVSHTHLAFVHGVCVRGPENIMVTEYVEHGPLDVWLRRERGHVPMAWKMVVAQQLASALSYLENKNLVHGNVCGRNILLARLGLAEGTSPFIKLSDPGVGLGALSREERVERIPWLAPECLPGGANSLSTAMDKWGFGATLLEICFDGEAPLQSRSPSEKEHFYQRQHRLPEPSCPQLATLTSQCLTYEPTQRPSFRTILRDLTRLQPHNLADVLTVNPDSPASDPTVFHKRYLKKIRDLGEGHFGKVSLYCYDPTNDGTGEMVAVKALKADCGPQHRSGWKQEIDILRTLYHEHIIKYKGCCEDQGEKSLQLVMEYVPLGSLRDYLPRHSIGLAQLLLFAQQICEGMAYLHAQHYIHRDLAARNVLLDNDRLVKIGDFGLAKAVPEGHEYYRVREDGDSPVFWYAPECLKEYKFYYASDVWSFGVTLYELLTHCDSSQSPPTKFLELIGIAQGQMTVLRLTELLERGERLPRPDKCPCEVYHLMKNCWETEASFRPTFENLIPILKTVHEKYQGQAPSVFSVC
Method: as §2

Structure (SMILES): CCS(=O)(=O)N1CC(CC#N)(n2cc(-c3nc(Nc4ccc(C(=O)NCCCCOc5ccc(C6CCC(=O)NC6=O)cc5)cc4)nc4[nH]ccc34)cn2)C1 (stereo not drawn) [Compound 5]
- remaining activity at 0.1 µM (JAK3): 65%
- remaining activity at 0.1 µM (GSPT1): 71%
- Target Protein Degradation (% remaining at 100 nM, 24 h) JAK1 (JAK1): 124 % remaining
- Target Protein Degradation (% remaining at 100 nM, 24 h) JAK2 (JAK2): 22 % remaining
- Neosubstrate Degradation (% remaining at 100 nM, 24 h) IKZF1 (IKZF1): 79 % remaining
- EC50 (MHH-CALL-4 cells): 2.2 nM
- AUC (MHH-CALL-4 cells): 124
- Target Protein Degradation (% remaining at 100 nM, 24 h) TYK2 (TYK2): 142 % remaining

Structure (SMILES): CCS(=O)(=O)N1CC(CC#N)(n2cc(-c3nc(Nc4ccc(C(=O)NCCN5CCN(c6ccc(C7CCC(=O)NC7=O)cc6)CC5)cc4)nc4[nH]ccc34)cn2)C1 (stereo not drawn) [Compound 37, 4-((4-(1-(3-(cyanomethyl)-1-(ethylsulfonyl)azetidin-3-yl)-1H-pyrazol-4-yl)-7H-pyrrolo[2,3-d]pyrimidin-2-yl)amino)-N-(2-(4-(4-(2,6-dioxopiperidin-3-yl)phenyl)piperazin-1-yl)ethyl)benzamide]
- remaining activity at 0.1 µM (JAK3): 58%
- Target Protein Degradation (% remaining at 100 nM, 24 h) JAK1 (JAK1): 120 % remaining
- Target Protein Degradation (% remaining at 100 nM, 24 h) JAK2 (JAK2): 26 % remaining
- EC50 (MHH-CALL-4 cells): 2.7 nM
- AUC (MHH-CALL-4 cells): 149
- Target Protein Degradation (% remaining at 100 nM, 24 h) TYK2 (TYK2): 121 % remaining

Structure (SMILES): CCS(=O)(=O)N1CC(CC#N)(n2cc(-c3nc(Nc4ccc(C(=O)NCCCCOc5cccc(C6CCC(=O)NC6=O)c5)cc4)nc4[nH]ccc34)cn2)C1 (stereo not drawn) [Compound 41, 4-((4-(1-(3-(cyanomethyl)-1-(ethylsulfonyl)azetidin-3-yl)-1H-pyrazol-4-yl)-7H-pyrrolo[2,3-d]pyrimidin-2-yl)amino)-N-(4-(3-(2,6-dioxopiperidin-3-yl)phenoxy)butyl)benzamide]
- remaining activity at 0.1 µM (JAK3): 46%
- Target Protein Degradation (% remaining at 100 nM, 24 h) JAK1 (JAK1): 97 % remaining
- Target Protein Degradation (% remaining at 100 nM, 24 h) JAK2 (JAK2): 28 % remaining
- EC50 (MHH-CALL-4 cells): 51.2 nM
- AUC (MHH-CALL-4 cells): 202
- Target Protein Degradation (% remaining at 100 nM, 24 h) TYK2 (TYK2): 125 % remaining

Structure (SMILES): CCS(=O)(=O)N1CC(CC#N)(n2cc(-c3nc(Nc4ccc(C(=O)NC5CCN(c6ccc(C7CCC(=O)NC7=O)cc6)CC5)cc4)nc4[nH]ccc34)cn2)C1 (stereo not drawn) [Compound 46, 4-((4-(1-(3-(cyanomethyl)-1-(ethylsulfonyl)azetidin-3-yl)-1H-pyrazol-4-yl)-7H-pyrrolo[2,3-d]pyrimidin-2-yl)amino)-N-(1-(4-(2,6-dioxopiperidin-3-yl)phenyl)piperidin-4-yl)benzamide]
- Target Protein Degradation (% remaining at 100 nM, 24 h) JAK1 (JAK1): 98 % remaining
- Target Protein Degradation (% remaining at 100 nM, 24 h) JAK2 (JAK2): 20 % remaining
- EC50 (MHH-CALL-4 cells): 9.25 nM
- Target Protein Degradation (% remaining at 100 nM, 24 h) TYK2 (TYK2): 119 % remaining

Structure (SMILES): CCS(=O)(=O)N1CC(CC#N)(n2cc(-c3nc(Nc4ccc(C(=O)NCCCCOc5ccc(C6CCC(=O)N(C)C6=O)cc5)cc4)nc4[nH]ccc34)cn2)C1 (stereo not drawn) [Compound 47, 4-((4-(1-(3-(cyanomethyl)-1-(ethylsulfonyl)azetidin-3-yl)-1H-pyrazol-4-yl)-7H-pyrrolo[2,3-d]pyrimidin-2-yl)amino)-N-(4-(4-(1-methyl-2,6-dioxopiperidin-3-yl)phenoxy)butyl)benzamide]
- remaining activity at 0.1 µM (JAK3): 101%
- remaining activity at 0.1 µM (GSPT1): 86%
- Target Protein Degradation (% remaining at 100 nM, 24 h) JAK1 (JAK1): 114 % remaining
- Target Protein Degradation (% remaining at 100 nM, 24 h) JAK2 (JAK2): 128 % remaining
- EC50 (MHH-CALL-4 cells): 3.35 nM
- Target Protein Degradation (% remaining at 100 nM, 24 h) TYK2 (TYK2): 89 % remaining

Structure (SMILES): CCS(=O)(=O)N1CC(CC#N)(n2cc(-c3nc(Nc4ccc(C(=O)N5CCC(CN6CCN(c7ccc(C8CCC(=O)NC8=O)cc7)CC6)CC5)cc4)nc4[nH]ccc34)cn2)C1 (stereo not drawn) [Compound 49, 2-(3-(4-(2-((4-(4-((4-(4-(2,6-dioxopiperidin-3-yl)phenyl)piperazin-1-yl)methyl)piperidine-1-carbonyl)phenyl)amino)-7H-pyrrolo[2,3-d]pyrimidin-4-yl)-1H-pyrazol-1-yl)-1-(ethylsulfonyl)azetidin-3-yl)acetonitrile]
- remaining activity at 0.1 µM (JAK3): 11%
- remaining activity at 0.1 µM (GSPT1): 74%
- Target Protein Degradation (% remaining at 100 nM, 24 h) JAK1 (JAK1): 59 % remaining
- Target Protein Degradation (% remaining at 100 nM, 24 h) JAK2 (JAK2): 13 % remaining
- EC50 (MHH-CALL-4 cells): 4 nM
- AUC (MHH-CALL-4 cells): 199

Structure (SMILES): CCS(=O)(=O)N1CC(CC#N)(n2cc(-c3nc(Nc4ccc(C(=O)N5CCC6(CC5)CCN(c5ccc(C7CCC(=O)NC7=O)cc5)CC6)cc4)nc4[nH]ccc34)cn2)C1 (stereo not drawn) [Compound 50, 2-(3-(4-(2-((4-(9-(4-(2,6-dioxopiperidin-3-yl)phenyl)-3,9-diazaspiro[5.5]undecane-3-carbonyl)phenyl)amino)-7H-pyrrolo[2,3-d]pyrimidin-4-yl)-1H-pyrazol-1-yl)-1-(ethylsulfonyl)azetidin-3-yl)acetonitrile]
- remaining activity at 0.1 µM (JAK3): 28%
- remaining activity at 0.1 µM (GSPT1): 137%
- Target Protein Degradation (% remaining at 100 nM, 24 h) JAK1 (JAK1): 85 % remaining
- Target Protein Degradation (% remaining at 100 nM, 24 h) JAK2 (JAK2): 11 % remaining
- EC50 (MHH-CALL-4 cells): 9 nM
- AUC (MHH-CALL-4 cells): 202

Structure (SMILES): CCS(=O)(=O)N1CC(CC#N)(n2cc(-c3nc(Nc4ccc(C(=O)N5CCC6(CCN(c7ccc(C8CCC(=O)NC8=O)cc7)CC6)C5)cc4)nc4[nH]ccc34)cn2)C1 (stereo not drawn) [Compound 52, 2-(3-(4-(2-((4-(8-(4-(2,6-dioxopiperidin-3-yl)phenyl)-2,8-diazaspiro[4.5]decane-2-carbonyl)phenyl)amino)-7H-pyrrolo[2,3-d]pyrimidin-4-yl)-1H-pyrazol-1-yl)-1-(ethylsulfonyl)azetidin-3-yl)acetonitrile]
- remaining activity at 0.1 µM (JAK3): 27%
- remaining activity at 0.1 µM (GSPT1): 72%
- Target Protein Degradation (% remaining at 100 nM, 24 h) JAK1 (JAK1): 126 % remaining
- Target Protein Degradation (% remaining at 100 nM, 24 h) JAK2 (JAK2): 16 % remaining
- EC50 (MHH-CALL-4 cells): 9 nM
- AUC (MHH-CALL-4 cells): 180

Structure (SMILES): CCS(=O)(=O)N1CC(CC#N)(n2cc(-c3nc(Nc4ccc(C(=O)NCCCN5CC6CCC(C5)N6c5ccc(C6CCC(=O)NC6=O)cc5)cc4)nc4[nH]ccc34)cn2)C1 (stereo not drawn) [Compound 55, 4-((4-(1-(3-(cyanomethyl)-1-(ethylsulfonyl)azetidin-3-yl)-1H-pyrazol-4-yl)-7H-pyrrolo[2,3-d]pyrimidin-2-yl)amino)-N-(3-(8-(4-(2,6-dioxopiperidin-3-yl)phenyl)-3,8-diazabicyclo[3.2.1]octan-3-yl)propyl)benzamide]
- remaining activity at 0.1 µM (JAK3): 44%
- remaining activity at 0.1 µM (GSPT1): 75%
- Target Protein Degradation (% remaining at 100 nM, 24 h) JAK1 (JAK1): 113 % remaining
- Target Protein Degradation (% remaining at 100 nM, 24 h) JAK2 (JAK2): 19 % remaining
- EC50 (MHH-CALL-4 cells): 596 nM
- AUC (MHH-CALL-4 cells): 149
